Assay results published in US11685766B2, “14-3-3 targeting peptides for cancer treatment” (Creighton University, priority 2019, dated 2023).
Entries after “also recorded” stand apart in the source; their conditions may differ. Peptide text beside a SMILES is read from it.

Key:
[1] = biological target: T1, 14-3-3ε binding to CDC25A (Homo sapiens, UniProt P62258); assay: Co-immunoprecipitation / immunoblot of CDC25A bound to 14-3-3ε; type: cell-based; settings: SCC12B.2 cells; for amount of CDC25A on immunoblots of immunoprecipitated 14-3-3ε: pS 30 μM, pT printed 2004, 48 hours, vs vehicle, P≤0.05
T1 construct: endogenous in cells; host or cells: SCC12B.2
T1 sequence (P62258 1-255): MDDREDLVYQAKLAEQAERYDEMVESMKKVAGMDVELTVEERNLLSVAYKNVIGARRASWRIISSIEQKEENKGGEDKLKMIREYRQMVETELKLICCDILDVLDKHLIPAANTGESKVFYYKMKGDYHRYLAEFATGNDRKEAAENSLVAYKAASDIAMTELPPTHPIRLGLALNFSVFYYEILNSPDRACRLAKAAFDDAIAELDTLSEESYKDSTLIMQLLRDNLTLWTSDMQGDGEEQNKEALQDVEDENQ
Protocol: Co-Immunoprecipitation (Co-IP) was performed using a Dynabeads Protein G Immunoprecipitation kit (Life Technologies, Carlsbad, Calif., USA). Beads were coupled to antibodies targeting 14-3-3ε (Fisher Scientific, Waltham, Mass., USA) or CDC25A (Santa Cruz Biotechnology, Dallas, Tex., USA) at a ratio of 7 μg of antibody for every 1 mg of beads according to the manufacturers protocol. SCC12B.2 cells were treated with vehicle (20 mM Tris buffer, pH 7.5) or fresh peptide (pS or pT) daily at the IC50 concentration for 48 hours in Opti-MEM I Reduced Serum Medium (Invitrogen) and collected by trypsinization. One hundred mg of cells were lysed in 1×IP buffer supplemented with 100 mM sodium chloride, 2 mM dithiothreitol, 1 mM magnesium chloride and protease/phosphatase inhibitors. Immunoprecipitation reactions were carried out using 1.5 mg of antibody-coupled beads incubated with 100 mg of cell lysate at 4° C. for 30 minutes. Negative controls were immunoprecipitation reactions using beads coupled to IgG isotype control antibody (rabbit), and whole lysate from immunoprecipitation input was loaded directly onto a gel was used as a positive control.
Protein was collected by either standard whole-cell lysis using ice-cold radioimmunoprecipitation assay (RIPA) lysis buffer supplemented with protease (Roche Life Scientific) and phosphatase inhibitors (NaF, Na3VO4) or by nuclear/cytosolic extraction using the NE-PER Nuclear and Cytoplasmic Protein Extraction Reagent Kit according to the manufacturer's protocol (Pierce, Rockford, Ill., USA). Tissue protein was extracted by using a tissue grinder to lyse cells in 100 μL of RIPA lysis buffer for every 1 mg of tissue. […] Protein concentration was assessed with the Bradford assay. […] Bands were detected using horseradish peroxidase-conjugated secondary antibodies (IgG mouse or rabbit) (Cell Signaling) and visualized using western lightning plus chemiluminescent reagent (MidSci, Valley Park, Mo., USA) and signal read on a Chemidoc XRS Molecular Imager (Bio-Rad Laboratories, Hercules, Calif., USA).

[2] = test system: SCC13 cells xenograft tumors; assay: Mouse SCC tumor xenografts (TUNEL, immunofluorescence, tumor growth); type: in vivo; settings: for increase in number of TUNEL-positive SCC cells compared to vehicle: intratumoral 2.5 nmol/50 μL, NCG mice, SCC13; for tumor volume compared to vehicle-treated xenografts: mouse xenograft tumors; for P-Akt (S473) levels in SCC xenografts (immunofluorescence) / Survivin levels in SCC xenografts (immunofluorescence): vs vehicle-treated xenografts
Protocol: Immunofluorescence was performed using an alexa-fluor488-conjugated secondary antibody (IgG mouse or rabbit) (Invitrogen) with 4′,6-diamidino-2-phenylindole (DAPI) (Vector Labs, Burlingame, Calif., USA) to identify nuclei. Cellular localization of immunohistochemistry signal was determined in a double-blinded manner. Slides were digitalized and fluorescence intensity was measured using Image analysis was performed using the Olympus VS120 Slide Scanner and Olyvia Analysis Software, respectively (Olympus, Tokyo, Japan).
Groups of NCG mice (NOD CRISPR Prkdc Il2r gamma/NjuCrl) (Charles River, Malvern, Pa., USA) were injected s.c. with 5×10^5 SCC13 cells suspended in 1:1 mixture of 1×PBS:Matrigel (Corning, Corning, N.Y., USA). Once the tumors reached a volume of 150 mm^3, tumors were treated with either vehicle (50 μL 1×PBS) or 2.5 nmol/50 μL of the targeting peptide ES1P2. Tumors were injected directly with either vehicle or ES1P2 daily for 2 days or every other day for 2 weeks and then harvested for analysis 24 hours after the last treatment. Tumors were fixed overnight in 10% buffered formalin (Thermo Fisher) and then switched to 70% ethanol the following day. All procedures were performed in accordance with the guidance of Creighton University Institutional Animal Care and Use Committee.
TUNEL (Terminal deoxynucleotidyl transferase dUTP nick end labeling) was carried out using Promega DeadEnd Fluorometric TUNEL system in accordance with the manufacturer's instructions (Promega). Cells were treated with DAPI (Vector Labs) to locate the nuclei within cells. […] Slides were digitalized and apoptotic nuclei counted using an Olympus VS120 Slide Scanner (Olympus).
Immunostaining was performed using antibodies recognizing P-Akt (S473) (Thermo Fisher) and Survivin (Cell Signaling, Danvers, Mass., USA), with alexa-fluor488-conjugated secondary antibody (IgG rabbit) (Invitrogen) with 4′,6-diamidino-2-phenylindole (DAPI) (Vector Labs, Burlingame, Calif., USA) to identify the nuclei. Slides were digitalized and analyzed using an Olympus VS120 Slide Scanner (Olympus, Shinjuku, Tokyo, JPN).
Groups of NCG mice (NOD CRISPR Prkdc Il2r gamma/NjuCrl) (Charles River, Malvern, Pa., USA) were injected s.c. with 5×10^5 human SCC13 cells suspended in 1:1 mixture of 1×PBS:Matrigel (Corning, Corning, N.Y., USA). Once the tumors reached 150 mm^3 in volume they were treated intratumorally with either vehicle (1× sterile PBS, pH, 7.5), pS, or pT (2.5 nmol/50 μL for each) daily for 2 days and then the mice were euthanized 24 hours after the second treatment. Tumors were fixed overnight in 10% neutral buffered formalin (Thermo Fisher) and then switched to 70% ethanol the following day before embedding and sectioning. All procedures were performed in accordance with the guidance of the Creighton University Institutional Animal Care and Use Committee.
TUNEL (terminal uridine nick-end labelling) assays were carried out using the Promega DeadEnd Fluorometric TUNEL system in accordance with the manufacturer's instructions (Promega Corporation, Madison, Wis., USA). Cells were treated with 4′,6-diamidino-2-phenylindole (DAPI) to locate the nuclei within cells. Slides were scanned and analyzed using an Olympus VS120 Slide Scanner (Olympus).

CC(=O)N[C@@H](CCCNC(=N)N)C(=O)N[C@H](C(=O)N[C@@H](CCCCN)C(=O)N[C@@H](CO)C(=O)N[C@@H](CCCNC(=N)N)C(=O)N[C@H](C(=O)N[C@@H](Cc1c[nH]c2ccccc12)C(=O)N[C@@H](C)C(=O)NCC(=O)N[C@@H](CCC(=O)O)C(=O)N[C@@H](CCCCN)C(=O)N[C@@H](CO)C(=O)N[C@@H](CCCCN)C(=O)N[C@@H](CCCNC(=N)N)C(N)=O)[C@@H](C)OP(=O)(O)O)[C@@H](C)O [pT, Ac-Arg-Thr-Lys-Ser-Arg-Thr(PO3^2−)-Trp-Ala-Gly-Glu-Lys-Ser-Lys-Arg-NH2] (HELM PEPTIDE1{[ac].R.T.K.S.R.[C[C@@H](OP(=O)(O)O)[C@H](N[*:1])C(=O)[*:2]].W.A.G.E.K.S.K.R.[am]}$$$$V2.0)
amount of CDC25A on immunoblots of immunoprecipitated 14-3-3ε [1]: decreases the amount of CDC25A | increase in number of TUNEL-positive SCC cells compared to vehicle ([2]; 2 daily treatments): 51% | tumor volume compared to vehicle-treated xenografts [2]: decreased volume | P-Akt (S473) levels in SCC xenografts (immunofluorescence) [2]: decreased | Survivin levels in SCC xenografts (immunofluorescence) [2]: decreased

CSCC[C@H](NC(=O)[C@H](CCCNC(=N)N)NC(=O)[C@@H]1CCCN1C(=O)[C@H](C)NC(=O)[C@H](COP(=O)(O)O)NC(=O)[C@H](CC(N)=O)NC(=O)[C@H](CCC(N)=O)NC(=O)[C@H](CCCNC(=N)N)NC(=O)[C@H](CCC(N)=O)NC(=O)[C@@H](NC(C)=O)[C@@H](C)O)C(=O)N[C@@H](CC(C)C)C(=O)N[C@@H](CO)C(=O)N[C@@H](CO)C(=O)N[C@@H](CC(N)=O)C(N)=O [pS, Ac-Thr-Gln-Arg-Gln-Asn-Ser-(PO3^2−)-Ala-Pro-Arg-Met-Leu-Ser-Ser-Asn-NH2] (HELM PEPTIDE1{[ac].T.Q.R.Q.N.[O=C([C@H](COP(=O)(O)O)N[*:1])[*:2]].A.P.R.M.L.S.S.N.[am]}$$$$V2.0)
14-3-3ε precipitation, pS-treated compared to pT-treated samples ([1]; 48 hours): less 14-3-3ε precipitation | amount of CDC25A on immunoblots of immunoprecipitated 14-3-3ε [1]: decreases the amount of CDC25A | increase in number of TUNEL-positive SCC cells compared to vehicle ([2]; 2 daily treatments): 25% | tumor volume compared to vehicle-treated xenografts [2]: decreased volume | P-Akt (S473) levels in SCC xenografts (immunofluorescence) [2]: decreased | Survivin levels in SCC xenografts (immunofluorescence) [2]: decreased

NCCCC[C@H](NC(=O)[C@H](Cc1c[nH]c2ccccc12)NC(=O)[C@H](Cc1ccc(O)cc1)NC(=O)[C@@H](N)Cc1c[nH]c2ccccc12)C(N)=O [ES1P2, Trp-Tyr-Trp-Lys-NH2] (H-WYWK-NH2)
number of TUNEL-positive SCC cells compared to vehicle ([2]; intratumoral 2.5 nmol, 2 daily treatments): more than doubled | tumor volume compared to vehicle-treated xenografts [2]: decreased tumor growth; also recorded: reduced tumor volume | reduction of SCC growth compared to vehicle ([2]; repeated intratumoral treatments of SCC xenografts, FIG. 1H/1I): approximately one-third | P-Akt (S473) levels in SCC xenografts (immunofluorescence) [2]: decreased | Survivin levels in SCC xenografts (immunofluorescence) [2]: decreased
